Where two headings read alike, the source gives them in different places.

For one test, the system named is HCT116 cells. The experiment in a line: Inhibition of cell proliferation by CTG (CellTiter-Glo) luminescence assay. It counts as cell-based. The settings on record: Homo sapiens, read-out: HCT116, IC50. The text has this: Test Example 2. Determination of Compound-Mediated Inhibition of Cell Proliferation by CTG (CellTiter-Glo) Luminescence Assay
Principle: The Promega CellTiter-Glo™ luciferase reagent was used. Luciferase consumes ATP to generate light; metabolically active cells continuously produce ATP through respiration and other processes. After adding an equal volume of CellTiter-Glo™ reagent to the culture medium, the resulting luminescence is directly proportional to the ATP content, which in turn correlates with the number of viable cells. Thus, the assay quantifies compound-induced suppression of cell proliferation.
Experimental Procedure: HCT116 cells (ATCC) were revived in complete medium (McCoy's 5a + 10 % FBS). After two passages, exponentially growing cells were harvested, counted, and resuspended to the appropriate density. A 100 µL aliquot of cell suspension (2 000 cells per well) was seeded into 96-well plates and incubated overnight (37 °C, 5 % CO2, 100 % relative humidity). Test compounds were dissolved in DMSO to prepare 10 mM stock solutions and serially diluted 1:3 in DMSO to generate nine concentration steps. Each DMSO solution was further diluted 200-fold into medium; 25 µL of the resulting solutions were added to the cell plates (final DMSO concentration […]). After 72 h incubation (37 °C, 5 % CO2), 50 µL of CellTiter-Glo reagent was added per well. Plates were shaken gently, incubated for 30 min at room temperature in the dark, and luminescence was read on an EnVision multimode reader. Percent inhibition was calculated as: Inhibition % = (1−As/Ac) × 100, [formula] where As = signal from compound-treated wells and Ac = signal from DMSO-only control wells. Concentration-response data were fitted in Excel with the XLfit add-in using the four-parameter logistic equation: Y = Bottom + (Top−Bottom)/[1+((IC50/X))^(∧)HillSlope], [formula] to derive the IC50 value for each compound. Table 2. IC50 of compounds

Another test addresses T1, topoisomerase I (Topo I) (Homo sapiens, UniProt P11387).
T1 sequence (P11387 1-765): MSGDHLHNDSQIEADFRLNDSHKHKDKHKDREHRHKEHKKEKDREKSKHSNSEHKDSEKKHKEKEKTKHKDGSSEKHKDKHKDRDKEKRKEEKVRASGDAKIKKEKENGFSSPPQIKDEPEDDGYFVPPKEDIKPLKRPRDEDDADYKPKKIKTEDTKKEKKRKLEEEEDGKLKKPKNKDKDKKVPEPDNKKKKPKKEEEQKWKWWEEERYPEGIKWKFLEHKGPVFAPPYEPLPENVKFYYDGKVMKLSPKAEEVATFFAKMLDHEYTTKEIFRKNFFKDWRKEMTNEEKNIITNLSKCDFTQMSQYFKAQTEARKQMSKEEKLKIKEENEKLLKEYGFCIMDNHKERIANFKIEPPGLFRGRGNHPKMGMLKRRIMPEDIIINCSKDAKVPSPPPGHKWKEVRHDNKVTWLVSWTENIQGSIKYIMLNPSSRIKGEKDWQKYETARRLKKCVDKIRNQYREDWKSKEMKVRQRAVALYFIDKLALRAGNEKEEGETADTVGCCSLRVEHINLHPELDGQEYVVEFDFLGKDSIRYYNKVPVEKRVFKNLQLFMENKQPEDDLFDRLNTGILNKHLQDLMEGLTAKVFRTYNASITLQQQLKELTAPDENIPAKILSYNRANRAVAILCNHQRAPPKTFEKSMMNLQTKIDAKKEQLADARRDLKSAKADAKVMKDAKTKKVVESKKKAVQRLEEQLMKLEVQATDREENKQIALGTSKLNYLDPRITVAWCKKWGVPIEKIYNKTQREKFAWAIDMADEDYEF
The experiment in a line: Topo I enzyme-inhibitory activity by agarose-gel electrophoresis (plasmid relaxation). In kind it is biochemical. The source says: Test Example 1. Determination of Topo I Enzyme-Inhibitory Activity by Agarose-Gel Electrophoresis
Principle: Type-I topoisomerase (Topo I) relaxes positive and negative supercoils by introducing transient single-strand breaks and forming reversible cleavage complexes (Topo I-DNA covalent complexes). Gel electrophoresis can resolve DNA species of identical molecular weight but different topology: supercoiled plasmid migrates fastest, whereas the nicked, relaxed form moves more slowly. Quantifying the decrease in supercoiled DNA therefore provides a direct measure of Topo I activity.
Experimental Procedure: A 1× reaction buffer was prepared (20 mM Tris-HCl pH 7.5, 200 mM NaCl, 0.25 mM EDTA, 5 % (v/v) glycerol, 0.5 µg pNO1 plasmid substrate). Test compounds (5 % DMSO final) were added to the buffer, followed by Topo I enzyme (0.75 U per reaction). After gentle mixing, reactions were incubated at 37 °C for 30 min. Positive (enzyme + vehicle) and negative (no enzyme) controls were included in parallel. Reactions were terminated by adding STEB buffer and chloroform/iso-amyl alcohol (24:1, v/v), vortexed and centrifuged for 2 min. The aqueous (upper) phase was loaded onto a 1 % (w/v) agarose gel, electrophoresed for 1-2 h, stained with GelRed, and imaged under UV trans-illumination.
Data Analysis: Band intensities of supercoiled DNA were quantified with image-analysis software. Relaxation activity (%) was calculated as (Max-Sample)/ (Max-Min)*100%, where Max = intensity of the no-enzyme negative control, Min = intensity of the vehicle-only positive control, and Sample = intensity of the compound-treated lane. Dose-response data (compound concentration, X; relaxation activity %, Y) were fitted in Excel or GraphPad Prism 5.0 using the four-parameter logistic equation: Y=Bottom + (Top-Bottom)/(1+(IC50/X)[…]) to derive the IC50 value for each compound.
Table 1. Compound-mediated inhibition of topoisomerase I (Topo I) enzymatic activity

The mark [1] stands for this setting: read-out: inhibition of topoisomerase I (Topo I) enzymatic activity, IC50; 0.75 U Topo I, pNO1 plasmid, 37 °C, 30 min; compounds listed by group (Group A / Group B).
Where [2] appears, read: HCT-116, 72 h incubation, CellTiter-Glo.
[3] abbreviates: 0.75 U Topo I, pNO1 plasmid, 37 °C, 30 min; compounds listed by group (Group A / Group B); read-out: inhibition of topoisomerase I (Topo I) enzymatic activity, IC50.

On to `CC[C@@]1(O)C(=O)OCc2c1cc1n(c2=O)Cc2c-1c(=O)c1cc(F)cc(OC)c1n2C` [Example 10, (S)-4-ethyl-8-fluoro-4-hydroxy-10-methoxy-11-methyl-1,12-dihydro-14H-pyrano[3,4:6,7]indolizino[2,1-b]quinoline-3,6,14 (4H,11H)-trione], for which the half-maximal inhibitory concentration (IC50) in the test on HCT116 cells (HCT-116, 72 h) is below 20 nM; on topoisomerase I (Topo I) (setting [1]), below 200 nM.
On to `CC[C@@]1(O)C(=O)OCc2c1cc1n(c2=O)Cc2c-1c(=O)c1cc(F)cnc1n2C` [Example 19, (S)-7-ethyl-3-fluoro-7-hydroxy-14-methyl-10,14-dihydro-11H-pyrano[3',4':6,7]indolizino[2,1-b][1,8]diazepine-5,8,11(7H,13H)-trione], for which the IC50 in the test with HCT116 cells (HCT-116, 72 h) was below 20 nM; on topoisomerase I (Topo I) (setting [1]), 200 to 500 nM.
Turning to `CCOCCc1cc(F)cc2c(=O)c3c(n(C)c12)Cn1c-3cc2c(c1=O)COC(=O)[C@]2(O)CC` [Example 23, (S)-10-(2-ethoxyethyl)-4-ethyl-8-fluoro-4-hydroxy-11-methyl-1,12-dihydro-14H-pyrano[3,4:6,7]indolizino[2,1-b]quinoline-3,6,14 (4H,11H)-trione], the concentration for half-maximal inhibition (IC50) was below 20 nM with HCT116 cells (HCT-116, 72 h) and 200 to 500 nM on topoisomerase I (Topo I) (setting [1]).
Consider `CC[C@@]1(O)C(=O)OCc2c1cc1n(c2=O)Cc2c-1c(=O)c1cc(F)cc(F)c1n2C` [Example 24, (S)-4-ethyl-8,10-difluoro-4-hydroxy-11-methyl-1,12-dihydro-14H-pyrano[3,4:6,7]indolizino[2,1-b]quinoline-3,6,14(4H,11H)-trione], for which the half-maximal inhibitory concentration (IC50) was below 20 nM with HCT116 cells (HCT-116, 72 h) and below 200 nM on topoisomerase I (Topo I) (setting [1]).
The matching figures for `CC[C@@]1(O)C(=O)OCc2c1cc1n(c2=O)Cc2c-1c(=O)c1cc(F)ccc1n2C(C)C` [Example 36, (S)-4-ethyl-8-fluoro-4-hydroxy-11-isopropyl-1,12-dihydro-14H-pyrano[3',4':6,7]indolizino[2,1-b]quinoline-3,6,14(4H,11H)-trione]: below 20 nM and below 200 nM.
The matching figures for `CC[C@@]1(O)C(=O)OCc2c1cc1n(c2=O)Cc2c-1c(=O)c1cc(F)ccc1n2C1CC1` [Example 37, (S)-4-ethyl-8-fluoro-4-hydroxy-11-cyclopropyl-1,12-dihydro-14H-pyrano[3',4':6,7]indolizino[2,1-b]quinoline-3,6,14(4H,11H)-trione]: below 20 nM and below 200 nM.
For the compound `CC[C@@]1(O)C(=O)OCc2c1cc1n(c2=S)Cc2c-1c(=O)c1cc(F)cc(C)c1n2C` [Example 39, (S)-4-ethyl-8-fluoro-4-hydroxy-10,11-dimethyl-14-thioxo-12,14-dihydro-1H-pyrano[3',4':6,7]indolizino[2,1-b]quinoline-3,6(4H, 11H)-dione], the half-maximal inhibitory concentration (IC50) in the test on HCT116 cells (setting [2]) is below 20 nM; on topoisomerase I (Topo I) (setting [3]) it was below 200 nM.
The matching figures for `CC[C@@]1(O)C(=O)OCc2c1cc1n(c2=O)Cc2c-1c(=O)c1cc(F)ccc1n2-c1cnn(C)c1` [Example 57, (S)-4-ethyl-8-fluoro-4-hydroxy-11-(1-methyl-1H-pyrazol-4-yl)-1H-pyrano[3',4':6,7]indolizino[2,1-b]quinoline-3,6,14(4H,11H,12H) -trione]: below 20 nM and 200 to 500 nM.
Turning to `CC[C@@]1(O)C(=O)OCc2c1cc1n(c2=O)Cc2c-1c(=O)c1cc(F)ccc1n2-c1cccnc1` [Example 60, (S)-4-ethyl-8-fluoro-4-hydroxy-11-(pyridin-3-yl)-1H-pyrano[3',4':6,7]indolizino[2,1-b]quinoline-3,6,14(4H,11H,12H)-trione], the half-maximal inhibitory concentration (IC50) is below 20 nM in the test on HCT116 cells (setting [2]) and 200 to 500 nM at topoisomerase I (Topo I) (setting [3]).
Take `CC[C@@]1(O)C(=O)OCc2c1cc1n(c2=O)Cc2c-1c(=O)c1cc(F)ccc1n2-c1cn(C2CC2)nc1C(C)O` (stereo partly drawn) [Example 63, (4S)-11-(1-cyclopropyl-3-(1-hydroxyethyl)-1H-pyrazol-4-yl)-4-ethyl-8-fluoro-4-hydroxy-1,12-dihydro-14H-pyrano[3,4:6,7] indolizino[2,1-b]quinoline-3,6,14(4H,11H)-trione]: the IC50 was below 20 nM with HCT116 cells (HCT-116, 72 h) and 200 to 500 nM on topoisomerase I (Topo I) (setting [1]).
For `CC[C@@]1(O)C(=O)OCc2c1cc1n(c2=O)Cc2c-1c(=O)c1cc3c(cc1n2-c1ccc(N)cc1)OCO3` [Example 67, (S)-5-(4-aminophenyl)-12-ethyl-12-hydroxy-9,12-dihydro-8H-[1,3]dioxolo[4,5-g]pyrano[3,4:6,7]indolizino[2,1-b]quinoline-8,11,14 (SH,6H)-trione] the same measures were below 20 nM and 200 to 500 nM.
`CC[C@@]1(O)C(=O)OCc2c1cc1n(c2=O)Cc2c-1c(=O)c1cc(F)c(C)cc1n2-c1ccc(N)cc1` [Example 68, (S)-11-(4-aminophenyl)-4-ethyl-8-fluoro-4-hydroxy-9-methyl-1,12-dihydro-14H-pyrano[3,4:6,7]indolizino[2,1-b]quinoline-3,6,14 (4H,11H)-trione]: the IC50 with HCT116 cells (HCT-116, 72 h) was below 20 nM; at topoisomerase I (Topo I) (setting [1]), 200 to 500 nM.
As to `CC[C@@]1(O)C(=O)OCc2c1cc1n(c2=O)Cc2c-1c(=O)c1cc(F)c(N)cc1n2C1CCCC1` [Example 69, (S)-9-amino-4-ethyl-8-fluoro-4-hydroxy-11-cyclopentyl-1,12-dihydro-14H-pyrano[3,4:6,7]indolizino[2,1-b]quinoline-3,6,14(4H,11H)-trione], the IC50 with HCT116 cells (setting [2]) is below 20 nM; at topoisomerase I (Topo I) (setting [3]), below 200 nM.
On to `CC[C@@]1(O)C(=O)OCc2c1cc1n(c2=O)Cc2c-1c(=O)c1cc(F)c(N)cc1n2C1CCC(C)(C)CC1` [Example 70, (S)-9-amino-4-ethyl-8-fluoro-4-hydroxy-11-(4,4-dimethylcyclohexyl)-1,12-dihydro-14H-pyrano[3,4:6,7]indolizino[2,1-b] quinoline-3,6,14(4H,11H)-trione], for which the IC50 with HCT116 cells (HCT-116, 72 h) is below 20 nM; at topoisomerase I (Topo I) (setting [1]), 200 to 500 nM.
For `CC[C@@]1(O)C(=O)OCc2c1cc1n(c2=O)Cc2c-1c(=O)c1cc(F)ccc1n2-c1cccc(N)c1` [Example 71, (S)-11-(3-aminophenyl)-4-ethyl-8-fluoro-4-hydroxy-1H-pyrano[3,4:6,7]indolizino[2,1-b]quinoline-3,6,14(4H,11H,12H)-trione] the same measures were below 20 nM and 200 to 500 nM.

For the origin of these results see patent EP4778929A1, “NOVEL TYPE I TOPOISOMERASE INHIBITOR, AND PREPARATION METHOD THEREFOR AND USE THEREOF” (priority 2023, dated 2025).
